Data on 5 molecules can be found in US4318898A, “Technetium-99m-labelled (2,4,5-trimethylacetanilido)-iminodiacetate for liver function diagnosis, chloroacetric acid (2,4,5-trimethylanilide), (2,4,5-trimethylacetanilido)-iminodiacetate, and process for their preparation” (Hoechst Aktiengesellschaft, priority 1978, dated 1982).

Data set [1] in a line: Gamma-camera observation of activity distribution over time in rabbit after injection into the ear vein. The note with it: for livermax (time of maximal liver activity after the injection) / livermax/2 (half-life of the activity in the liver, outside of the gallbladder): rabbit, 0.5 mCi, ear vein, Tc-99m labelled. In kind it is in vivo. As to the method:
(1) 0.5 mCi of the labelled diagnostic agent ia administered to a rabbit by injection into the ear vein, and the distribution of the activity is observed during the passage of time by means of a gamma-camera connected with a data processing system. The progress of the activity in defined organs is thus observed. The following parameters are determined:
1. livermax =time of maximal liver activity after the injection
2. livermax/2 =half-life of the activity in the liver (outside of the gallbladder).
1.8 g (2,4,5-trimethylacetanilido)-iminodiacetic acid is dissolved in 20 ml of 0.5 N sodium hydroxide solution and 36 mg of SnCl2.2H2 O (dissolved in 6 ml of 0.1 N hydrochloric acid) are added. The batch is stirred for 5 minutes, the pH is adjusted to 6 by means of hydrochloric acid, the batch is brought to 60 ml and divided into 1 ml portions. 10 mCi of Tc-99m pertechnetate in 4 ml of physiological saline solution are added to such a portion. […] All operations were carried out under a protective N2 gas atmosphere.

The nature of data set [2]: Distribution of radioactivity in the organs of rats after injection into the thigh vein. It counts as in vivo, rat. The note with it: for radioactivity in intestines / radioactivity in kidneys / radioactivity in liver: rat, 30 μCi, thigh vein. As to the method: 2. 30 μCi each of the labelled diagnostic agent are administered to groups of 12 rats each by injection into the thigh vein. Subsequently, 3 animals each are killed after 5, 10, 20 and 30 minutes, and the distribution of radioactivity in the organs is determined.
After stirring for 5 minutes, the pH is adjusted to 6 by means of hydrochloric acid, the batch is brought to 233 ml, divided into 1 ml portions in beaded rim vials, and frozen with liquid nitrogen. Subsequently, the product is lyophilized, the vials are filled with nitrogen and closed. After a storage time of 60 days, 0.3 mCi to Tc-99m pertechnetate in 10 ml of physiological saline solution is injected into the closed vials. After a reaction time of 20 minutes, 0.5 ml each of the diagnostic agent so obtained is administered intravenously to rats (typical test results are indicated in Table 2).

The next data set has as its system rats. Put plainly: Toxicity (dosis tolerata maxima, LD50) in rats. It counts as in vivo.
A further data set has as its system mice. Kind of data set: Toxicity (dosis tolerata maxima, LD50) in mice. In kind it is in vivo.
Setting [3] is: compared to the hitherto known products.

Consider “^99m Tc-(2,6-diethylacetanilido)-iminodiacetate [EHIDA]”, for which, in data set [1], the “livermax (time of maximal liver activity after the injection)” value came to 6.8 min and the “livermax/2 (half-life of the activity in the liver, outside of the gallbladder)” value stood at 15.7 min. Besides, in data set [2] (5 minutes), the radioactivity in intestines is given as 71.2%, the radioactivity in kidneys turned out to be 4.3% and the radioactivity in liver was determined as 6.9%. Also, in data set [2] (10 minutes), the radioactivity in intestines is listed as 79.9%, the radioactivity in kidneys is listed as 4.2% and the radioactivity in liver is listed as 3.4%. Also, in data set [2] (20 minutes), the radioactivity in intestines is 81.7%, the radioactivity in kidneys is recorded as 3.6% and the radioactivity in liver was determined as 1.6%. In data set [2] (30 minutes), the radioactivity in intestines came out at 81.8%, the radioactivity in kidneys was determined as 3.4% and the radioactivity in liver stood at 1.5%.
For the molecule “^99m Tc-(2,6-dimethylacetanilido)-iminodiacetate [HIDA]”, in data set [1], the “livermax (time of maximal liver activity after the injection)” value worked out at 5.7 min and the “livermax/2 (half-life of the activity in the liver, outside of the gallbladder)” value was 8.2 min. Also, in data set [2] (5 minutes), the radioactivity in intestines came out at 43.2%, the radioactivity in kidneys worked out at 7.4% and the radioactivity in liver was 21.7%. Also, in data set [2] (10 minutes), the radioactivity in intestines was determined as 65.9%, the radioactivity in kidneys came out at 7.4% and the radioactivity in liver turned out to be 9.6%. Moreover, in data set [2] (20 minutes), the radioactivity in intestines is listed as 80.8%, the radioactivity in kidneys is recorded as 5.8% and the radioactivity in liver stood at 2.2%. Further, in data set [2] (30 minutes), the radioactivity in intestines was 79.7%, the radioactivity in kidneys is on record as 4.9% and the radioactivity in liver was 1.0%.
In the case of `Cc1cc(C)c(NC(=O)CN(CC(=O)O)CC(=O)O)c(C)c1` [2,4,6-trimethyl-, (2,4,6-trimethylacetanilido)iminodiacetate], in data set [1], the “livermax (time of maximal liver activity after the injection)” value was 4.2 min and the “livermax/2 (half-life of the activity in the liver, outside of the gallbladder)” value was determined as 10.0 min. For the same molecule, in data set [2] (5 minutes), the radioactivity in intestines worked out at 57.0%, the radioactivity in kidneys came out at 3.6% and the radioactivity in liver is 23.5%. In data set [2] (10 minutes), the radioactivity in intestines was found to be 66.0%, the radioactivity in kidneys is 3.8% and the radioactivity in liver is recorded as 12.1%. Besides, in data set [2] (20 minutes), the radioactivity in intestines was 79.2%, the radioactivity in kidneys was 3.8% and the radioactivity in liver turned out to be 2.9%. Also, in data set [2] (30 minutes), the radioactivity in intestines is recorded as 81.0%, the radioactivity in kidneys turned out to be 3.3% and the radioactivity in liver is recorded as 1.6%.
Consider `Cc1cc(C)c(NC(=O)CN(CC(=O)O)CC(=O)O)cc1C` [TMIDA, (2,4,5-trimethylacetanilido)-iminodiacetate], for which, in the data set with rats, the LD50 is given as 255 mg per kg of test animal and the dosis tolerata maxima is listed as 189 mg/kg of body weight. For the same molecule, in data set [1] (setting [3]), the “passage through the liver” value was “more rapid passage through the liver”. Moreover, in data set [1], the “livermax (time of maximal liver activity after the injection)” value is 2.6 min and the “livermax/2 (half-life of the activity in the liver, outside of the gallbladder)” value is 7.7 min. Besides, in the data set on mice, the LD50 is listed as 246 mg per kg of test animal and the dosis tolerata maxima is 189 mg/kg of body weight. Moreover, in data set [2] (setting [3]), the “activity concentration in the kidney” value is given as “decreased activity concentration in the kidney”. Moreover, in data set [2] (5 minutes), the radioactivity in intestines came to 56.8%, the radioactivity in kidneys amounted to 3.3% and the radioactivity in liver is reported as 19.1%. In data set [2] (10 minutes), the radioactivity in intestines came to 68.8%, the radioactivity in kidneys came out at 3.1% and the radioactivity in liver is listed as 9.6%. In addition, in data set [2] (20 minutes), the radioactivity in intestines amounted to 81.1%, the radioactivity in kidneys is 2.5% and the radioactivity in liver came out at 2.4%. Moreover, in data set [2] (30 minutes), the radioactivity in intestines was 82.0%, the radioactivity in kidneys is on record as 2.1% and the radioactivity in liver came out at 1.2%.
With `CC(C)c1cccc(C(C)C)c1NC(=O)CN(CC(=O)O)CC(=O)O` [2,6-diisopropyl-, (2,6-diisopropylacetanilido)-iminodiacetate], in data set [1], the “livermax (time of maximal liver activity after the injection)” value was 4.6 min and the “livermax/2 (half-life of the activity in the liver, outside of the gallbladder)” value was found to be 15.3 min. Further, in data set [2] (5 minutes), the radioactivity in intestines stood at 60.9%, the radioactivity in kidneys stood at 4.4% and the radioactivity in liver was found to be 10.0%. Besides, in data set [2] (10 minutes), the radioactivity in intestines came to 65.3%, the radioactivity in kidneys was 4.4% and the radioactivity in liver came to 7.0%. Besides, in data set [2] (20 minutes), the radioactivity in intestines is 71.9%, the radioactivity in kidneys came out at 4.4% and the radioactivity in liver is 4.4%. Further, in data set [2] (30 minutes), the radioactivity in intestines was found to be 72.2%, the radioactivity in kidneys came to 3.8% and the radioactivity in liver is 4.4%.
